Measurements published in the supplement of paper PMC8882468.
± gives the standard deviation of the averaged measurements.

Tests used:
Test in all cases: CTG-3D luminescence at 96 h relative to day-0 seeding control (ratio to day 0); higher = more growth / less cytotoxicity; PDxO 3D drug screen, 96 h, CTG-3D normalised to day-0 seeding control.
HCI-017.E2 = tested on: HCI-017.E2 (organoid from an ER-positive breast cancer xenograft)
HCI-025 = tested on: HCI-025 (organoid from a breast cancer xenograft)
HCI-019 = tested on: HCI-019 (organoid from a triple-negative breast cancer xenograft)

`NC(=O)c1cccc2cn(-c3ccc([C@@H]4CCCNC4)cc3)nc12` [niraparib] was tested, and the “CTG-3D luminescence at 96 h” value (HCI-017.E2; 12.5 pM) was 1.823 ± 0.015, the “CTG-3D luminescence at 96 h” value (HCI-017.E2; 12.5 pM, days in culture: 85) was 2.25 and the “CTG-3D luminescence at 96 h” value (HCI-017.E2; 0.00025 µM) was 1.66 ± 0.039. The “CTG-3D luminescence at 96 h” value (HCI-017.E2; 0.00025 µM, days in culture: 85) was 2.22, the “CTG-3D luminescence at 96 h” value (HCI-017.E2; 0.005 µM) was 1.89 ± 0.088 and the “CTG-3D luminescence at 96 h” value (HCI-017.E2; 0.005 µM, days in culture: 85) was 2.21. For the same molecule, the “CTG-3D luminescence at 96 h” value (HCI-017.E2; 0.1 µM) was 1.61 ± 0.12, the “CTG-3D luminescence at 96 h” value (HCI-017.E2; 0.1 µM, days in culture: 85) was 2.63 and the “CTG-3D luminescence at 96 h” value (HCI-017.E2; 1 µM) was 1.48 ± 0.024. The “CTG-3D luminescence at 96 h” value (HCI-017.E2; 1 µM, days in culture: 85) was 2.09, the “CTG-3D luminescence at 96 h” value (HCI-017.E2; 10 µM) was 1.58 ± 0.36 and the “CTG-3D luminescence at 96 h” value (HCI-017.E2; 10 µM, days in culture: 85) was 1.81. For the same molecule, the “CTG-3D luminescence at 96 h” value (HCI-017.E2; 100 µM) was 0.00319 ± 0.004, the “CTG-3D luminescence at 96 h” value (HCI-017.E2; 100 µM, days in culture: 85) was 0.00236 and the “CTG-3D luminescence at 96 h” value (HCI-017.E2; 625 fM) was 1.94 ± 0.13. The “CTG-3D luminescence at 96 h” value (HCI-017.E2; 625 fM, days in culture: 85) was 1.95, the “CTG-3D luminescence at 96 h” value (HCI-025; 12.5 pM, days in culture: 172) was 2.92 and the “CTG-3D luminescence at 96 h” value (HCI-025; 12.5 pM, days in culture: 209) was 1.9. The “CTG-3D luminescence at 96 h” value (HCI-025; 12.5 pM, days in culture: 218) was 1.38, the “CTG-3D luminescence at 96 h” value (HCI-025; 0.00025 µM, days in culture: 172) was 1.82 and the “CTG-3D luminescence at 96 h” value (HCI-025; 0.00025 µM, days in culture: 209) was 2.67. For the same molecule, the “CTG-3D luminescence at 96 h” value (HCI-025; 0.00025 µM, days in culture: 218) was 1.94, the “CTG-3D luminescence at 96 h” value (HCI-025; 0.005 µM, days in culture: 172) was 3.92 and the “CTG-3D luminescence at 96 h” value (HCI-025; 0.005 µM, days in culture: 209) was 2.31. For the same molecule, the “CTG-3D luminescence at 96 h” value (HCI-025; 0.005 µM, days in culture: 218) was 1.97, the “CTG-3D luminescence at 96 h” value (HCI-025; 0.1 µM, days in culture: 172) was 2.04 and the “CTG-3D luminescence at 96 h” value (HCI-025; 0.1 µM, days in culture: 209) was 1.69. For the same molecule, the “CTG-3D luminescence at 96 h” value (HCI-025; 0.1 µM, days in culture: 218) was 1.83, the “CTG-3D luminescence at 96 h” value (HCI-025; 1 µM, days in culture: 172) was 2.08 and the “CTG-3D luminescence at 96 h” value (HCI-025; 1 µM, days in culture: 209) was 1.9. For the same molecule, the “CTG-3D luminescence at 96 h” value (HCI-025; 1 µM, days in culture: 218) was 1.03, the “CTG-3D luminescence at 96 h” value (HCI-025; 10 µM, days in culture: 172) was 0.426 and the “CTG-3D luminescence at 96 h” value (HCI-025; 10 µM, days in culture: 209) was 0.545. The “CTG-3D luminescence at 96 h” value (HCI-025; 10 µM, days in culture: 218) was 0.271, the “CTG-3D luminescence at 96 h” value (HCI-025; 100 µM, days in culture: 172) was -0.311 and the “CTG-3D luminescence at 96 h” value (HCI-025; 100 µM, days in culture: 209) was -0.0263. The “CTG-3D luminescence at 96 h” value (HCI-025; 100 µM, days in culture: 218) was -0.304, the “CTG-3D luminescence at 96 h” value (HCI-025; 625 fM, days in culture: 172) was 2.26 and the “CTG-3D luminescence at 96 h” value (HCI-025; 625 fM, days in culture: 209) was 1.59. The “CTG-3D luminescence at 96 h” value (HCI-025; 625 fM, days in culture: 218) was 1.62, the “CTG-3D luminescence at 96 h” value (HCI-019; 12.5 pM, days in culture: 110) was 1.64 and the “CTG-3D luminescence at 96 h” value (HCI-019; 12.5 pM, days in culture: 131) was 2.29. For the same molecule, the “CTG-3D luminescence at 96 h” value (HCI-019; 12.5 pM, days in culture: 152) was 2.88, the “CTG-3D luminescence at 96 h” value (HCI-019; 0.00025 µM, days in culture: 110) was 1.35 and the “CTG-3D luminescence at 96 h” value (HCI-019; 0.00025 µM, days in culture: 131) was 3.06. For the same molecule, the “CTG-3D luminescence at 96 h” value (HCI-019; 0.00025 µM, days in culture: 152) was 2.16, the “CTG-3D luminescence at 96 h” value (HCI-019; 0.005 µM, days in culture: 110) was 1.18 and the “CTG-3D luminescence at 96 h” value (HCI-019; 0.005 µM, days in culture: 131) was 2.98. For the same molecule, the “CTG-3D luminescence at 96 h” value (HCI-019; 0.005 µM, days in culture: 152) was 1.69, the “CTG-3D luminescence at 96 h” value (HCI-019; 0.1 µM, days in culture: 110) was 1.2 and the “CTG-3D luminescence at 96 h” value (HCI-019; 0.1 µM, days in culture: 131) was 2.4. For the same molecule, the “CTG-3D luminescence at 96 h” value (HCI-019; 0.1 µM, days in culture: 152) was 1.52, the “CTG-3D luminescence at 96 h” value (HCI-019; 1 µM, days in culture: 110) was 0.642 and the “CTG-3D luminescence at 96 h” value (HCI-019; 1 µM, days in culture: 131) was 0.89. The “CTG-3D luminescence at 96 h” value (HCI-019; 1 µM, days in culture: 152) was 0.878, the “CTG-3D luminescence at 96 h” value (HCI-019; 10 µM, days in culture: 110) was 1.1 and the “CTG-3D luminescence at 96 h” value (HCI-019; 10 µM, days in culture: 131) was 1.3. The “CTG-3D luminescence at 96 h” value (HCI-019; 10 µM, days in culture: 152) was 1.16, the “CTG-3D luminescence at 96 h” value (HCI-019; 100 µM, days in culture: 110) was 0.00205 and the “CTG-3D luminescence at 96 h” value (HCI-019; 100 µM, days in culture: 131) was 0.00628. The “CTG-3D luminescence at 96 h” value (HCI-019; 100 µM, days in culture: 152) was 0.00267, the “CTG-3D luminescence at 96 h” value (HCI-019; 625 fM, days in culture: 110) was 2.72 and the “CTG-3D luminescence at 96 h” value (HCI-019; 625 fM, days in culture: 131) was 3.35. For the same molecule, the “CTG-3D luminescence at 96 h” value (HCI-019; 625 fM, days in culture: 152) was 2.35.
